From patent US8859546B2, “Picolinamide inhibitors of kinases” (AbbVie Inc., priority 2011, dated 2014)

These compounds were tested against T1, ALK (Homo sapiens, UniProt Q9UM73) (assay: ALK kinase assay (HTRF), apparent Ki). Conditions: apparent Ki from IC50 by Cheng-Prusoff; ALK (Millipore), 50 μM ATP; read-out: HTRF_ALK Human-Ki.
T1 construct: purchased Millipore
Assay type: biochemical
Method: The following procedure is used to determine ALK Activity.
ALK kinase assays were conducted with the indicated final concentrations unless otherwise specified. In 384 well black plates (Axygen), 8 μl of compound (2% DMSO) was incubated with 8 μl Lck-peptide substrate (0.5 μM, biotin-Ahx-GAEEEIYAAFFA-COOH) and 8 μl of a mixture of ALK (3 nM, Millipore) and ATP (50 μM) in reaction buffer (50 mM Hepes, pH 7.4; 10 mM MgCl2; 2 mM MnCl2; 0.1 mM sodium orthovanadate; 0.01% BSA and 1 mM DTT (added fresh before assay) for 1 h at room temperature. Reactions were then quenched by the addition of 30 μl quench solution (streptavidin-allophycocyanin and Europium-cryptate PT66 monoclonal antibody in 40 mM Hepes, pH 7.4; 480 mM KF; 66 mM EDTA; 0.01% Tween-20; and 0.1% BSA) at room temperature. Plates were read 1 h after quenching on an Envision Multilaber Reader and IC50 values were calculated using a sigmoidal fit of the concentration/inhibition response curves. These values were converted to apparent Ki values using the Cheng-Prusoff relationship.
Alternatively, 4 nM ALK (Millipore) and 50 μM ATP were pre-incubated for 30 min at room temperate in 384 well plates (Corning 3676) in 2.5× reaction buffer (125 nM SEB from Cisbio Bioassays, 12.5 mM MgCl2, 5 mM MnCl2, and 2.5 mM DTT). Reactions were initiated by the addition of 4 μl ALK-ATP mixture to 2 μl compounds (2% DMSO) and 4 μl TK-substrate biotin (Cisbio Bioassays). After incubation for 1 h at room temperature, reactions were quenched in 10 μl stop buffer (Cisbio detection buffer containing Streptavididn-XL665 and Eu-Cryptate PT66 monoclonal antibody). Plates were read 1 h after quenching on an Envision Multilaber Reader and IC50 values were calculated using a sigmoidal fit of the concentration/inhibition response curves. These values were converted to apparent Ki values using the Cheng-Prusoff relationship. Results are shown in Table 1 A correlates to an Ki=<100 nM, B correlates to an Ki between 100 nM and 1 μM, C correlates to an Ki=>1 μM.

T1 sequence (Q9UM73 19-1620): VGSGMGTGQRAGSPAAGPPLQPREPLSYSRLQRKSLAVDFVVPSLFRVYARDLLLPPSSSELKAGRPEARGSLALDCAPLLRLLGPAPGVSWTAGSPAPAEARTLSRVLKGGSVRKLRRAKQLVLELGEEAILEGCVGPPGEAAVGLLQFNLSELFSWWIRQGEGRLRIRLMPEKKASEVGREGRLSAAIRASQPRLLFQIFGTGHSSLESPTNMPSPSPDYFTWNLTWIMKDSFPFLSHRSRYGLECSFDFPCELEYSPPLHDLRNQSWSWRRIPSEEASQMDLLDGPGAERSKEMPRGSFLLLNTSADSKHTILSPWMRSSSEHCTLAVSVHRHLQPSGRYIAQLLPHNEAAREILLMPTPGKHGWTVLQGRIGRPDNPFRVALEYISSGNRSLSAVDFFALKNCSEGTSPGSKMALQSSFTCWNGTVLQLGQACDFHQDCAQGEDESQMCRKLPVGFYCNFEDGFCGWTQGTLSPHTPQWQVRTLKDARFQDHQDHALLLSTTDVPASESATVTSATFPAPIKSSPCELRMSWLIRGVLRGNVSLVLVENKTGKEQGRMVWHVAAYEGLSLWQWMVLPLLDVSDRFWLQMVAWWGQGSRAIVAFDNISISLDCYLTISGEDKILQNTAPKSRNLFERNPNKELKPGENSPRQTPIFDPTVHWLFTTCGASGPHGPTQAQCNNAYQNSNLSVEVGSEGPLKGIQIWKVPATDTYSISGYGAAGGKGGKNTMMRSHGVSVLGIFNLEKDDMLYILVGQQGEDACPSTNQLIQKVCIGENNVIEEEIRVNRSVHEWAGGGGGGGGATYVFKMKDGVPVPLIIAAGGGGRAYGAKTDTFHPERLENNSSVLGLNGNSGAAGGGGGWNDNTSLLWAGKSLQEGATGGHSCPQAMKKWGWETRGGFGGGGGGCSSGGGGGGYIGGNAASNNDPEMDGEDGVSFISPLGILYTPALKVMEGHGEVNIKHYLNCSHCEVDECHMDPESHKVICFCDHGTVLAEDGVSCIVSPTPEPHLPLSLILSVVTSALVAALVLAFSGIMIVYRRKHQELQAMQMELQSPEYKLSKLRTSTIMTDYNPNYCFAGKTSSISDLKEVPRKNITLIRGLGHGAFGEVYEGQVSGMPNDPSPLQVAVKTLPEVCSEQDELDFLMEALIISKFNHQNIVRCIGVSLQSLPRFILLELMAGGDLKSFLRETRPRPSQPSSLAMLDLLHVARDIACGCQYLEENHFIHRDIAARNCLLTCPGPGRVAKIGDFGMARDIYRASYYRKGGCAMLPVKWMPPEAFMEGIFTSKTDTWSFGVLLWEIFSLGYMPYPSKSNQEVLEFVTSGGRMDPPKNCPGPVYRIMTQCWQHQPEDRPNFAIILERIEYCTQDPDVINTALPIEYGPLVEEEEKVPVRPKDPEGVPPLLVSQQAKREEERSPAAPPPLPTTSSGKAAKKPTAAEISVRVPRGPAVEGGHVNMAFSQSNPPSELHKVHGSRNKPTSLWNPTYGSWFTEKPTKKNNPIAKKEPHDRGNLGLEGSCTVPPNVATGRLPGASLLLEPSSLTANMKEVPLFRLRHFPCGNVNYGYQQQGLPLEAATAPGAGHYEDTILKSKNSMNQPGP

**Q.** How did the Ki turn out when `COc1cc(N2CCNCC2)ccc1Nc1cc(Cc2c(Cl)cccc2Cl)cnc1C(N)=O` [Example 1, 5-(2,6-dichlorobenzyl)-3-{[2-methoxy-4-(piperazin-1-yl)phenyl]amino}pyridine-2-carboxamide] was run?
**A.** The Ki was less than 100 nM.

**Q.** For `COc1cc(N2CCNCC2)ccc1Nc1cc(C(C)c2c(Cl)cccc2Cl)cnc1C(N)=O` (stereo not shown) [Example 2, 5-[1-(2,6-dichlorophenyl)ethyl]-3-{[2-methoxy-4-(piperazin-1-yl)phenyl]amino}pyridine-2-carboxamide], which Ki is on record?
**A.** The Ki was less than 100 nM.

**Q.** For `CN1CCN(c2ccc(Nc3cc(Cc4ccccc4)cnc3C(N)=O)cc2)CC1` [Example 3, 5-benzyl-3-{[4-(4-methylpiperazin-1-yl)phenyl]amino}pyridine-2-carboxamide], which Ki is on record?
**A.** Its Ki is 100 to 1000 nM.

**Q.** How did the Ki turn out when `CN1CCN(c2cccc(Nc3cc(Cc4ccccc4)cnc3C(N)=O)c2)CC1` [Example 4, 5-benzyl-3-{[3-(4-methylpiperazin-1-yl)phenyl]amino}pyridine-2-carboxamide] was run?
**A.** Its Ki is 100 to 1000 nM.

**Q.** `CN1CCN(c2ccc(Nc3cc(CC4CCCCC4)cnc3C(N)=O)cc2)CC1` [Example 5, 5-(cyclohexylmethyl)-3-{[4-(4-methylpiperazin-1-yl)phenyl]amino}pyridine-2-carboxamide] was tested. Which Ki did it give?
**A.** The Ki was 100 to 1000 nM.

**Q.** For `CN1CCN(c2ccc(Nc3cc(-c4ccccc4)cnc3C(N)=O)cc2)CC1` [Example 6, 3-{[4-(4-methylpiperazin-1-yl)phenyl]amino}-5-phenylpyridine-2-carboxamide], which Ki is on record?
**A.** The Ki was 100 to 1000 nM.

**Q.** How did the Ki turn out when `CN1CCN(c2ccc(Nc3cc(Cc4ccccc4)cnc3C(N)=O)cc2Cl)CC1` [Example 7, 5-benzyl-3-{[3-chloro-4-(4-methylpiperazin-1-yl)phenyl]amino}pyridine-2-carboxamide] was run?
**A.** The Ki was 100 to 1000 nM.

**Q.** For `Cc1cc(Nc2cc(Cc3ccccc3)cnc2C(N)=O)ccc1N1CCN(C)CC1` [Example 8, 5-benzyl-3-{[3-methyl-4-(4-methylpiperazin-1-yl)phenyl]amino}pyridine-2-carboxamide], which Ki is on record?
**A.** The Ki was greater than 1000 nM.

**Q.** How did the Ki turn out when `Cc1cc(N2CCN(C)CC2)ccc1Nc1cc(Cc2ccccc2)cnc1C(N)=O` [Example 9, 5-benzyl-3-{[2-methyl-4-(4-methylpiperazin-1-yl)phenyl]amino}pyridine-2-carboxamide] was run?
**A.** Its Ki is 100 to 1000 nM.

**Q.** With `C=C(c1ccccc1)c1cnc(C(N)=O)c(Nc2ccc(N3CCN(C)CC3)cc2)c1` [Example 10, 3-{[4-(4-methylpiperazin-1-yl)phenyl]amino}-5-(1-phenylvinyl)pyridine-2-carboxamide] as the compound, how does the Ki read?
**A.** The Ki was 100 to 1000 nM.

**Q.** For `CC(c1ccccc1)c1cnc(C(N)=O)c(Nc2ccc(N3CCN(C)CC3)cc2)c1` (stereo not shown) [Example 11, 3-{[4-(4-methylpiperazin-1-yl)phenyl]amino}-5-(1-phenylethyl)pyridine-2-carboxamide], which Ki is on record?
**A.** Its Ki is 100 to 1000 nM.

**Q.** For `CN1CCN(c2ccc(Nc3cc(Cc4ccc(F)cc4)cnc3C(N)=O)cc2)CC1` [Example 12, 5-(4-fluorobenzyl)-3-{[4-(4-methylpiperazin-1-yl)phenyl]amino}pyridine-2-carboxamide], which Ki is on record?
**A.** Its Ki is 100 to 1000 nM.

**Q.** How did the Ki turn out when `CN1CCN(c2ccc(Nc3cc(Cc4ccccc4F)cnc3C(N)=O)cc2)CC1` [Example 13, 5-(2-fluorobenzyl)-3-{[4-(4-methylpiperazin-1-yl)phenyl]amino}pyridine-2-carboxamide] was run?
**A.** Its Ki is less than 100 nM.

**Q.** Which Ki does the source give for `CN1CCN(c2ccc(Nc3cc(Cc4cccc(F)c4)cnc3C(N)=O)cc2)CC1` [Example 14, 5-(3-fluorobenzyl)-3-{[4-(4-methylpiperazin-1-yl)phenyl]amino}pyridine-2-carboxamide] here?
**A.** Its Ki is less than 100 nM.

**Q.** How did the Ki turn out when `CN1CCN(c2ccc(Nc3cc(Cc4c(F)cccc4F)cnc3C(N)=O)cc2)CC1` [Example 15, 5-(2,6-difluorobenzyl)-3-{[4-(4-methylpiperazin-1-yl)phenyl]amino}pyridine-2-carboxamide] was run?
**A.** The Ki was less than 100 nM.

**Q.** `COc1ccc(Cc2cnc(C(N)=O)c(Nc3ccc(N4CCN(C)CC4)cc3)c2)cc1` [Example 16, 5-(4-methoxybenzyl)-3-{[4-(4-methylpiperazin-1-yl)phenyl]amino}pyridine-2-carboxamide] was tested. Which Ki did it give?
**A.** The Ki was 100 to 1000 nM.

**Q.** For `CN1CCN(c2ccc(Nc3cc(Cc4ccc5ccccc5c4)cnc3C(N)=O)cc2)CC1` [Example 17, 3-{[4-(4-methylpiperazin-1-yl)phenyl]amino}-5-(2-naphthylmethyl)pyridine-2-carboxamide], which Ki is on record?
**A.** Its Ki is greater than 1000 nM.

**Q.** With `CN1CCN(c2ccc(Nc3cc(Cc4cc(F)cc(F)c4)cnc3C(N)=O)cc2)CC1` [Example 18, 5-(3,5-difluorobenzyl)-3-{[4-(4-methylpiperazin-1-yl)phenyl]amino}pyridine-2-carboxamide] as the compound, how does the Ki read?
**A.** The Ki was less than 100 nM.

**Q.** For `CN1CCN(c2ccc(Nc3cc(Cc4ccc(F)c(F)c4)cnc3C(N)=O)cc2)CC1` [Example 19, 5-(3,4-difluorobenzyl)-3-{[4-(4-methylpiperazin-1-yl)phenyl]amino}pyridine-2-carboxamide], which Ki is on record?
**A.** The Ki was 100 to 1000 nM.

**Q.** With `CN1CCN(c2ccc(Nc3cc(Cc4ccc(F)cc4F)cnc3C(N)=O)cc2)CC1` [Example 20, 5-(2,4-difluorobenzyl)-3-{[4-(4-methylpiperazin-1-yl)phenyl]amino}pyridine-2-carboxamide] as the compound, how does the Ki read?
**A.** Its Ki is 100 to 1000 nM.

**Q.** `CN1CCN(c2ccc(Nc3cc(Cc4cc(F)ccc4F)cnc3C(N)=O)cc2)CC1` [Example 21, 5-(2,5-difluorobenzyl)-3-{[4-(4-methylpiperazin-1-yl)phenyl]amino}pyridine-2-carboxamide] was tested. Which Ki did it give?
**A.** Its Ki is less than 100 nM.

**Q.** With `COc1cccc(Cc2cnc(C(N)=O)c(Nc3ccc(N4CCN(C)CC4)cc3)c2)c1` [Example 22, 5-(3-methoxybenzyl)-3-{[4-(4-methylpiperazin-1-yl)phenyl]amino}pyridine-2-carboxamide] as the compound, how does the Ki read?
**A.** Its Ki is 100 to 1000 nM.

**Q.** Which Ki does the source give for `CN1CCN(c2ccc(Nc3cc(Cc4ccccc4Cl)cnc3C(N)=O)cc2)CC1` [Example 23, 5-(2-chlorobenzyl)-3-{[4-(4-methylpiperazin-1-yl)phenyl]amino}pyridine-2-carboxamide] here?
**A.** The Ki was 100 to 1000 nM.

**Q.** How did the Ki turn out when `CN1CCN(c2ccc(Nc3cc(Cc4cccc(Cl)c4)cnc3C(N)=O)cc2)CC1` [Example 24, 5-(3-chlorobenzyl)-3-{[4-(4-methylpiperazin-1-yl)phenyl]amino}pyridine-2-carboxamide] was run?
**A.** Its Ki is 100 to 1000 nM.

**Q.** For `CN1CCN(c2ccc(Nc3cc(Cc4ccc(Cl)cc4)cnc3C(N)=O)cc2)CC1` [Example 25, 5-(4-chlorobenzyl)-3-{[4-(4-methylpiperazin-1-yl)phenyl]amino}pyridine-2-carboxamide], which Ki is on record?
**A.** The Ki was greater than 1000 nM.

**Q.** How did the Ki turn out when `Cc1cccc(Cc2cnc(C(N)=O)c(Nc3ccc(N4CCN(C)CC4)cc3)c2)c1` [Example 26, 5-(3-methylbenzyl)-3-{[4-(4-methylpiperazin-1-yl)phenyl]amino}pyridine-2-carboxamide] was run?
**A.** The Ki was 100 to 1000 nM.

**Q.** For `Cc1ccccc1Cc1cnc(C(N)=O)c(Nc2ccc(N3CCN(C)CC3)cc2)c1` [Example 27, 5-(2-methylbenzyl)-3-{[4-(4-methylpiperazin-1-yl)phenyl]amino}pyridine-2-carboxamide], which Ki is on record?
**A.** The Ki was greater than 1000 nM.

**Q.** How did the Ki turn out when `COc1ccccc1Cc1cnc(C(N)=O)c(Nc2ccc(N3CCN(C)CC3)cc2)c1` [Example 28, 5-(2-methoxybenzyl)-3-{[4-(4-methylpiperazin-1-yl)phenyl]amino}pyridine-2-carboxamide] was run?
**A.** Its Ki is 100 to 1000 nM.

**Q.** With `Cc1ccc(Cc2cnc(C(N)=O)c(Nc3ccc(N4CCN(C)CC4)cc3)c2)cc1` [Example 29, 5-(4-methylbenzyl)-3-{[4-(4-methylpiperazin-1-yl)phenyl]amino}pyridine-2-carboxamide] as the compound, how does the Ki read?
**A.** Its Ki is 100 to 1000 nM.

**Q.** With `CN1CCN(c2ccc(Nc3cc(Cc4c(F)cccc4Cl)cnc3C(N)=O)cc2)CC1` [Example 30, 5-(2-chloro-6-fluorobenzyl)-3-{[4-(4-methylpiperazin-1-yl)phenyl]amino}pyridine-2-carboxamide] as the compound, how does the Ki read?
**A.** The Ki was less than 100 nM.

**Q.** With `CN1CCN(c2ccc(Nc3cc(Cc4c(Cl)cccc4Cl)cnc3C(N)=O)cc2)CC1` [Example 31, 5-(2,6-dichlorobenzyl)-3-{[4-(4-methylpiperazin-1-yl)phenyl]amino}pyridine-2-carboxamide] as the compound, how does the Ki read?
**A.** The Ki was less than 100 nM.

**Q.** For `CN1CCN(c2ccc(Nc3cc(Cc4ccccc4-c4ccccc4)cnc3C(N)=O)cc2)CC1` [Example 32, 5-(biphenyl-2-ylmethyl)-3-{[4-(4-methylpiperazin-1-yl)phenyl]amino}pyridine-2-carboxamide], which Ki is on record?
**A.** Its Ki is 100 to 1000 nM.

**Q.** For `CN1CCN(c2ccc(Nc3cc(Cc4cccc(C(F)(F)F)c4)cnc3C(N)=O)cc2)CC1` [Example 33, 3-{[4-(4-methylpiperazin-1-yl)phenyl]amino}-5-[3-(trifluoromethyl)benzyl]pyridine-2-carboxamide], which Ki is on record?
**A.** The Ki was 100 to 1000 nM.

**Q.** With `CC(c1cccc(F)c1)c1cnc(C(N)=O)c(Nc2ccc(N3CCN(C)CC3)cc2)c1` (stereo not shown) [Example 34, 5-[1-(3-fluorophenyl)ethyl]-3-{[4-(4-methylpiperazin-1-yl)phenyl]amino}pyridine-2-carboxamide] as the compound, how does the Ki read?
**A.** Its Ki is 100 to 1000 nM.
